Measured values as given in patent publication US10500209B2, “Quinazolinones as bromodomain inhibitors” (Zenith Epigenetics Ltd., priority 2013, dated 2019).

What was measured:
[1] = molecular target: T1, Brd4 bromodomain 1 (BRD4(1)) (Homo sapiens, UniProt O60885); assay: Inhibition of tetra-acetylated histone H4 binding to BET bromodomains (TR-FRET); set-up: key: Active: Compounds with an IC50 value less than 30 μM were deemed to be active.; Not Active: Compounds with an IC50 value less than 30 μM were deemed to be active; conditions: first bromodomain of Brd4, tetra-acetylated histone H4 peptide
T1 construct: made in house; host or cells: E. coli BL21(DE3)
Procedure, shortened: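 N-terminally His-tagged bromodomain (200 nM) from E. coli was mixed with biotinylated tetra-acetylated histone H4 peptide (25-50 nM), Eu-streptavidin and XL665 anti-His, plus compound, in HEPES pH 7.4 buffer with 0.2% DMSO. After 2 h at room temperature, the 665/620 nm TR-FRET decrease gave IC50 from dose-response curves.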

c-myc in MV4-11 cells = assay: Inhibition of c-myc expression in cancer cell lines (mRNA, real-time PCR); format: cell-based, Human; set-up: key: Active: Compounds with an IC50 value less than 30 μM were deemed to be active.; Not Active: Compounds with an IC50 value less than 30 μM were deemed to be active; conditions: 3 h
Method: MV4-11 cells (2.5×10^4 cells) were plated in 96 well U-bottom plates with test compound or DMSO (0.1%), and incubated for 3 h at 37° C. Cells were then harvested by centrifugation, lysed, and mRNA was isolated using the mRNA catcher plus kit (Invitrogen). Reverse transcription of the mRNA and duplex amplification of the c-myc and cyclophilin cDNAs was performed using the RNA Ultrasense kit (Invitrogen) and a ViiA7 real-time PCR machine (Applied Biosystems). IC50 values were determined from a dose response curve.

human AML MV-4-11 cells = assay: Inhibition of cell proliferation in cancer cell lines (CellTiter Aqueous One); format: cell-based; set-up: key: Active: Compounds with an IC50 value less than 30 μM were deemed to be active.; Not Active: Compounds with an IC50 value less than 30 μM were deemed to be active; conditions: 72 h
Method: MV4-11 cells: 96-well plates were seeded with 5×10^4 cells per well of exponentially growing human AML MV-4-11 (CRL-9591) cells and immediately treated with two-fold dilutions of test compounds, ranging from 30 μM to 0.2 μM. Triplicate wells were used for each concentration, as well as a media only and three DMSO control wells. The cells and compounds were incubated at 37° C., 5% CO2 for 72 h before adding 20 μL of the CellTiter Aqueous One Solution (Promega) to each well and incubating at 37° C., 5% CO2 for an additional 3-4 h. The absorbance was taken at 490 nm in a spectrophotometer and the percentage of proliferation relative to DMSO-treated cells was calculated after correction from the blank well. IC50 were calculated using the GraphPad Prism software.

hIL-6 mRNA = assay: Inhibition of hIL-6 mRNA transcription in LPS-stimulated U937 macrophages; format: cell-based, human; set-up: key: Active: Compounds with an IC50 value less than 30 μM were deemed to be active.; Not Active: Compounds with an IC50 value less than 30 μM were deemed to be active; conditions: U937 cells differentiated with PMA, LPS stimulation, 3 h
Method: In this example, hIL-6 mRNA in tissue culture cells was quantitated to measure the transcriptional inhibition of hIL-6 when treated with a compound of the present disclosure.
A human leukemic monocyte lymphoma cell line (U937) was plated (3.2×10^4 cells per well) in a 96-well plate in 100 μL RPMI-1640 containing 10% FBS and penicillin/streptomycin, and differentiated into macrophages for 3 days in 60 ng/mL PMA ([…]) at 37° C. in 5% CO2 prior to the addition of the compound of interest. The cells were pretreated for 1 h with the test compound prior to stimulation with 1 ug/mL lipopolysaccharide from Escherichia coli. The cells were incubated at 37° C. for 3 h before the cells were harvested. At time of harvest, the spent media was removed from the cells and the cells were rinsed in 200 μL PBS. Cell lysis solution (70 μL) was added the cells in each well and incubated for 5-10 min at room temperature, to allow for complete cell lysis and detachment. mRNA was then prepared using the “mRNA Catcher PLUS plate” (Invitrogen), according to the protocol supplied. After the last wash, as much wash buffer as possible was aspirated without allowing the wells to dry. Elution buffer (E3, 70 μL) was then added to each well. mRNA was then eluted by incubating the mRNA Catcher PLUS plate with Elution Buffer for 5 min at 68° C. and then immediately placing the plate on ice.
The eluted mRNA isolated was then used in a one-step quantitative real-time PCR reaction, using components of the Ultra Sense Kit together with Applied Biosystems primer-probe mixes. Real-time PCR data was analyzed, normalizing the Ct values for hIL-6 to an internal control, prior to determining the fold induction of each unknown sample, relative to the control.

FRET activity BRD4(1) [1] | c-myc activity (IC50 < 30 μM) (c-myc in MV4-11 cells) | Cell Proliferation activity (IC50 < 30 μM) (human AML MV-4-11 cells) | IL-6 activity (IC50 < 30 μM) (hIL-6 mRNA) | melting point | Structure (SMILES)
Active | Active | Active | Active | 261 to 262 °C | COc1cc(OC)c2c(=O)[nH]c(-c3ncccc3NC3CCN(C(=O)C(=O)N(C)C)CC3)nc2c1 [Example 51, 2-(4-((2-(5,7-Dimethoxy-4-oxo-3,4-dihydroquinazolin-2-yl)pyridin-3-yl)amino)piperidin-1-yl)-N,N-dimethyl-2-oxoacetamide]
Active | Active | Active | Active | 219 to 221 °C | CCNc1cc(OC)c2c(=O)[nH]c(-c3ncccc3NC3CCN(C(C)C)CC3)nc2c1 [Example 69, 7-(Ethylamino)-2-(3-((1-isopropylpiperidin-4-yl)amino)pyridin-2-yl)-5-methoxyquinazolin-4(3H)-one]
Active | Active | Active | Active | 165 to 166 °C | COC(=O)C(=O)N1CCC(Nc2cccnc2-c2nc3cc(OC)cc(OC)c3c(=O)[nH]2)CC1 [Example 55, Methyl-2-(4-((2-(5,7-dimethoxy-4-oxo-3,4-dihydroquinazolin-2-yl)pyridin-3-yl)amino)piperidin-1-yl)-2-oxoacetate]
Active | Active | Not Active | Active | 230 to 231 °C | COc1cc(OC)c2c(=O)[nH]c(-c3ncccc3NCCCNC(=O)C(C)C)nc2c1 [Example 57, N-(3-((2-(5,7-Dimethoxy-4-oxo-3,4-dihydroquinazolin-2-yl)pyridin-3-yl)amino)propyl)isobutyramide]

Second part, the molecule before the results:

Structure (SMILES) | FRET activity BRD4(1) [1] | c-myc activity (IC50 < 30 μM) (c-myc in MV4-11 cells) | Cell Proliferation activity (IC50 < 30 μM) (human AML MV-4-11 cells) | IL-6 activity (IC50 < 30 μM) (hIL-6 mRNA) | melting point
COc1ccc(-c2nc3cc(OC)cc(OC)c3c(=O)[nH]2)c(NCCCN2CCNCC2)c1 [Example 28, 5,7-Dimethoxy-2-(4-methoxy-2-[3-(piperazin-1-yl)propylamino]phenyl)quinazolin-4(3H)-one] | Active | Active | Active | Active | 225 to 228 °C
COc1cc(OC)c2c(=O)[nH]c(-c3ncccc3NC3CCN(C(=O)NC(C)C)CC3)nc2c1 [Example 47, 4-((2-(5,7-Dimethoxy-4-oxo-3,4-dihydroquinazolin-2-yl)pyridin-3-yl)amino)-N-isopropylpiperidine-1-carboxamide] | Active | – | Not Active | Active | 198 to 199 °C
COc1cc(OC)c2c(=O)[nH]c(-c3ncccc3NC3CCN(C(=O)C(C)(C)C)CC3)nc2c1 [Example 48, 5,7-Dimethoxy-2-(3-((1-pivaloylpiperidin-4-yl)amino)pyridin-2-yl)quinazolin-4(3H)-one] | Active | Active | Active | Active | 209 to 210 °C
COc1ccc(NC2CCN(C(C)C)CC2)c(-c2nc3cc(OC)cc(OC)c3c(=O)[nH]2)c1 [Example 26, 2-(2-((1-Isopropylpiperidin-4-yl)amino)-5-methoxyphenyl)-5,7-dimethoxyquinazolin-4(3H)-one] | Active | Active | Not Active | Active | –
COc1cc(OC)c2c(=O)[nH]c(-c3ncc(OCCNC4CCN(C(C)C)CC4)cc3NC3CCN(C(C)C)CC3)nc2c1 [Example 50, 2-(3-((1-Isopropylpiperidin-4-yl)amino)-5-(2-((1-isopropylpiperidin-4-yl)amino)ethoxy)pyridin-2-yl)-5,7-dimethoxyquinazolin-4(3H)-one] | Active | – | – | Active | –
COc1cc(OC)c2c(=O)[nH]c(-c3ncccc3NC3CCN(C(C)C)CC3)nc2c1 [Example 18, 2-(3-((1-Isopropylpiperidin-4-yl)amino)pyridin-2-yl)-5,7-dimethoxyquinazolin-4(3H)-one] | Active | Active | Active | Active | 170 to 172 °C
COc1ccc(-c2nc3cc(OC)cc(OC)c3c(=O)[nH]2)c(NC2CCN(C(C)=O)CC2)c1 [Example 39, 2-(2-((1-Acetylpiperidin-4-yl)amino)-4-methoxyphenyl)-5,7-dimethoxyquinazolin-4(3H)-one] | Active | Active | Active | Active | –
COc1cnc(-c2nc3cc(OC)cc(OC)c3c(=O)[nH]2)c(N[C@H]2CC[C@@H](C(=O)NC(C)C)CC2)c1 [Example 45, cis-4-((2-(5,7-Dimethoxy-4-oxo-3,4-dihydroquinazolin-2-yl)-5-methoxypyridin-3-yl)amino)-N-isopropylcyclohexane-1-carboxamide] | Active | – | Not Active | Active | –
COc1cc(OC)c2c(=O)[nH]c(-c3ncccc3NC3CCN(C(C)=O)CC3)nc2c1 [Example 37, 2-(3-((1-Acetylpiperidin-4-yl)amino)pyridine-2-yl)-5,7-dimethoxyquinazolin-4(3H)-one] | Active | Active | Active | Active | –
COc1ccc(-c2nc3cc(OC)cc(OC)c3c(=O)[nH]2)c(N[C@H]2CC[C@H](C(C)(C)O)CC2)c1 [Example 31, 2-(2-((trans-4-(2-Hydroxypropan-2-yl)cyclohexyl)amino)-4-methoxyphenyl)-5,7-dimethoxyquinazolin-4(3H)-one] | Active | – | Not Active | Active | 253 °C (dec.)
